Laboratory results from ChEMBL document CHEMBL3507680, “University of Dundee, Gates Library screen for HepG2 cell viability”.

Assay: Human HepG2 cell viability assay in 384 well format
Type: toxicity, cell-based
Set-up: dose 125 nL, time 70.5 hour; concentration not given beside the values
Settings: HepG2 cells, read-out: Inhibition

## O=C1CO[C@H](c2ccc(NS(=O)(=O)Cc3ccccc3)cc2)[C@@H](CO)N1
  cytotoxicity at 70.5 h: 12%

## CC(=O)Nc1ccc2c(c1)nc1n2[C@@H](CNCc2ccccc2)COC1
  cytotoxicity at 70.5 h: -11.7%

## COc1ccc(CNC[C@H]2COCc3nc4cc(F)ccc4n32)cc1
  cytotoxicity at 70.5 h: -14.9%

## Cc1cc2nc(CO[C@H]3CN(C(=O)C4CC4)C[C@H]3F)[nH]c2cc1C
  cytotoxicity at 70.5 h: 27.1%

## Cc1cc2nc(CO[C@H]3CN(C4CCCCC4)C[C@H]3F)[nH]c2cc1C
  cytotoxicity at 70.5 h: 3.34%

## Cc1cc2nc(CO[C@H]3CN(CC4CC4)C[C@H]3F)[nH]c2cc1C
  cytotoxicity at 70.5 h: -2.67%

## COC(=O)c1cccc2nc([C@H]3CCN(CC(C)C)C3)oc12
  cytotoxicity at 70.5 h: -4.07%

## Fc1ccc2[nH]c([C@H]3CCN(C4CCOCC4)C3)nc2c1
  cytotoxicity at 70.5 h: 4.63%

## CCS(=O)(=O)c1ccc2oc([C@H]3CCN(CC4CCCCC4)C3)nc2c1
  cytotoxicity at 70.5 h: 13.1%

## Fc1ccc(OCc2nnc([C@H]3CCN(Cc4ccncc4)C3)o2)cc1
  cytotoxicity at 70.5 h: -6.85%

## CN1CC[C@H](c2nnc(Cc3c[nH]c4ccccc34)o2)C1
  cytotoxicity at 70.5 h: -1.52%

## COC(=O)[C@@H]1Cc2[nH]cnc2CN1Cc1cc2ccccc2o1
  cytotoxicity at 70.5 h: -2.5%

## CN(Cc1ccccc1)C(=O)[C@@H]1Cc2[nH]cnc2CN1C
  cytotoxicity at 70.5 h: 9.41%

## CN(C[C@H]1CN2CC[C@H]1C[C@@H]2CNC(=O)c1ccco1)c1ccccc1
  cytotoxicity at 70.5 h: -0.576%

## O[C@@H]1C[C@@H](c2nc(-c3ccccc3)no2)N(CC2CCCCC2)C1
  cytotoxicity at 70.5 h: -12.5%

## CC(C)CN1C(=O)COC[C@@H]1[C@H](O)c1ccc(NC(=O)C2CC2)cc1
  cytotoxicity at 70.5 h: 5.4%

## Cc1cccc(-c2noc([C@@H]3C[C@@H](O)CN3C)n2)c1
  cytotoxicity at 70.5 h: 3.3%

## O[C@@H]1C[C@@H](c2nc(Cc3ccccc3)no2)N(Cc2ccc(F)cc2)C1
  cytotoxicity at 70.5 h: -19.1%

## Cc1cccc(-c2noc([C@@H]3C[C@@H](O)CN3CC3CCCCC3)n2)c1
  cytotoxicity at 70.5 h: -1.98%

## Cc1ccc2oc([C@H]3CCN(Cc4ccccc4)C3)nc2c1
  cytotoxicity at 70.5 h: 5.17%

## COc1ccc(CN2CCC[C@H]2c2nc(-c3cncnc3N)no2)cc1
  cytotoxicity at 70.5 h: 12.8%

## COCc1cc(CC2(NCc3ccccc3Cl)COC2)no1
  cytotoxicity at 70.5 h: -3.62%

## CC(C)CNC1(Cc2cc(-c3ccccc3)on2)COC1
  cytotoxicity at 70.5 h: -6.11%

## O=C(NC[C@H]1OC[C@@H](N(CC2CC2)CC2CC2)[C@@H]1O)Nc1ccccc1
  cytotoxicity at 70.5 h: -8.13%

## Cc1nc(C)c(CN2CCOC[C@H](Oc3cnccn3)C2)s1
  cytotoxicity at 70.5 h: -7.51%

## CN1C[C@H]2CN(Cc3cccc(OC(F)(F)F)c3)CCN2C1=O
  cytotoxicity at 70.5 h: 8.83%

## Cc1ccc(CNC2(Cc3cc(C(C)(C)O)on3)COC2)o1
  cytotoxicity at 70.5 h: -5.2%

## COC(=O)[C@H]1CN(C(=O)NC(C)C)CCN1C(=O)CSC
  cytotoxicity at 70.5 h: -5.64%

## c1ccc(-c2cc(CC3(NCc4ncc[nH]4)COC3)no2)cc1
  cytotoxicity at 70.5 h: -4.27%

## CCCN(CCC)C1(Cc2cc(-c3cccc(O)c3)on2)COC1
  cytotoxicity at 70.5 h: -2.95%

## CCCS(=O)(=O)N1Cc2c(ncn2Cc2ccccc2)C[C@H]1C(=O)OC
  cytotoxicity at 70.5 h: -5.74%

## O[C@@H]1C[C@@H](c2nc(Cc3ccccc3)no2)N(CC2CC2)C1
  cytotoxicity at 70.5 h: 2.65%

## CN1C[C@@H](N)C[C@H]1c1nc(-c2ccc3c(c2)OCO3)no1
  cytotoxicity at 70.5 h: -1.52%

## O[C@H]1CC[C@@H](Cc2cc(-c3ccccn3)on2)O[C@@H]1CNCC1CC1
  cytotoxicity at 70.5 h: -7.3%

## O=C(Nc1ccccc1)[C@H]1O[C@H](CCN2CCNCC2)CC[C@@H]1O
  cytotoxicity at 70.5 h: 0.346%

## CN1Cc2nc[nH]c2C[C@H]1C(=O)NC1CCCCC1
  cytotoxicity at 70.5 h: -3.45%

## NC(=O)CN1C(=O)CO[C@H]2CN(Cc3ccc(F)c(F)c3)C[C@H]21
  cytotoxicity at 70.5 h: -3.9%

## Cc1cccc(CS(=O)(=O)NCc2nn(C)c3c2COCC3)c1
  cytotoxicity at 70.5 h: -7.96%

## Cn1nc(CNC(=O)C2CCC2)cc1C1CC1
  cytotoxicity at 70.5 h: -4.15%

## Cn1nc(CNC(=O)C2CCCCC2)cc1C1CC1
  cytotoxicity at 70.5 h: 33%

## CCSc1ccccc1C(=O)N1CCC(S(=O)(=O)c2nncn2C)CC1
  cytotoxicity at 70.5 h: -5.86%

## Cn1cnnc1S(=O)(=O)C1CCN(S(=O)(=O)c2ccccc2F)CC1
  cytotoxicity at 70.5 h: -9.91%

## CNC(=O)CS(=O)(=O)C1CCN(S(=O)(=O)c2cccnc2)CC1
  cytotoxicity at 70.5 h: -3.91%

## O=C(Cc1ccc(Br)cc1)N1CC(S(=O)(=O)C2CCCCC2)C1
  cytotoxicity at 70.5 h: -4.51%

## O=C(c1cccnc1)N1CC(S(=O)(=O)c2ccc(Cl)cc2)C1
  cytotoxicity at 70.5 h: -10.4%

## O=C(c1ccccn1)N1CC(S(=O)(=O)c2ccc(Cl)cc2)C1
  cytotoxicity at 70.5 h: 1.72%

## O=C(Nc1ccc2c(c1)OCO2)Nc1cnn(C2CCOCC2)c1
  cytotoxicity at 70.5 h: -0.609%

## Cc1ccc(S(=O)(=O)Nc2cnn(C3CCOCC3)c2)cc1C
  cytotoxicity at 70.5 h: 2.28%

## CC(=O)c1ccc(S(=O)(=O)Nc2cnn(C3CCOCC3)c2)cc1
  cytotoxicity at 70.5 h: 6.82%

## COC(CNC(=O)c1cn(C)nn1)c1ccc(C)s1 (centres undefined)
  cytotoxicity at 70.5 h: -6.13%

## COc1nn(C)cc1C(=O)NCC(OC)c1ccccc1C (centres undefined)
  cytotoxicity at 70.5 h: -3.02%

## COC(CNC(=O)c1cn(C)nn1)c1ccccc1C (centres undefined)
  cytotoxicity at 70.5 h: -3.6%

## CCC(CNC(C)=O)(OC)c1ccccc1 (centres undefined)
  cytotoxicity at 70.5 h: -6.06%

## O=C(CC1CCCC1)N1CCN(c2ccc(-n3cncn3)nn2)CC1
  cytotoxicity at 70.5 h: -7.71%

## O=C(O)c1ncccc1N1CCCCC1
  cytotoxicity at 70.5 h: -14.8%

## CCN1C(=O)C[C@@H]2[C@@H]1CCN2S(=O)(=O)c1cccc(C)c1
  cytotoxicity at 70.5 h: 12.1%

## CC(C)C(=O)N1CCC(C2C(=O)Nc3ccccc32)CC1 (centres undefined)
  cytotoxicity at 70.5 h: -16.1%

## COCCN1C[C@H]2CCN(C(=O)Nc3ccccc3C)CC[C@H]2S1(=O)=O
  cytotoxicity at 70.5 h: -11.5%

## CCN1CCC2(CN(C(C)=O)CC23CCN(C(=O)N(C)C)CC3)C1=O (centres undefined)
  cytotoxicity at 70.5 h: -9.48%

## Cc1cc(C(=O)N[C@H]2CC[C@@]3(CCC(=O)N3)CC2)no1
  cytotoxicity at 70.5 h: -6.09%

## COc1ccc(CN2C[C@@H]3CN(CCO)C[C@@H]3C2=O)cc1
  cytotoxicity at 70.5 h: -11.6%

## COC1COC2(CCN(Cc3ccco3)CC2)C1 (centres undefined)
  cytotoxicity at 70.5 h: -8.76%

## c1cnc(N2C[C@H]3CCC[C@@H](CN4CCCC4)[C@H]3C2)nc1
  cytotoxicity at 70.5 h: 22.9%

## CCn1c2c(ccc1=O)CC(N)CC2 (centres undefined)
  cytotoxicity at 70.5 h: 15.2%

## CCN1CCNC(=O)C12CCN(S(=O)(=O)c1ccc(F)cc1)CC2
  cytotoxicity at 70.5 h: 0.587%

## CCN1CCNC(=O)C12CCN(S(=O)(=O)c1ccccc1)CC2
  cytotoxicity at 70.5 h: -6.26%

## O=C(NCC1CC1)C1CCC2(CCNCC2)C1 (centres undefined)
  cytotoxicity at 70.5 h: -2.15%

## CCN1CCNC(=O)C12CCN(S(=O)(=O)c1ccc(OC)cc1)CC2
  cytotoxicity at 70.5 h: -7.91%

## O=C(NC1CC1)N1CCCC2(CCNC2=O)C1 (centres undefined)
  cytotoxicity at 70.5 h: -3.68%

## O=C1CCC2(CCCN(C(=O)Cc3cccs3)C2)N1 (centres undefined)
  cytotoxicity at 70.5 h: -5%

## NC1CCc2c(ccc(=O)n2Cc2ccncc2)C1 (centres undefined)
  cytotoxicity at 70.5 h: 2.44%

## CC(C)N1CCc2[nH]nc(C(=O)N3CCCC3C)c2C1 (centres undefined)
  cytotoxicity at 70.5 h: -4.03%

## CCOCC(=O)N1C[C@H]2CN(CC3CC3)C(=O)[C@H]2C1
  cytotoxicity at 70.5 h: -5.22%

## Cn1ccc(C(=O)N2CCCCC23CC(=O)N(Cc2ccccc2)C3)n1 (centres undefined)
  cytotoxicity at 70.5 h: 1.38%

## Cc1nc(CN2CCC3(CCN(Cc4cnn(C)c4)C3)C2=O)cs1 (centres undefined)
  cytotoxicity at 70.5 h: -13.8%

## CCO[C@@H]1CC[C@H]2[C@H]1OCCN2Cc1ccc(F)cc1
  cytotoxicity at 70.5 h: -16.2%

## O=C(C1CCC1)N1CCC2(CCNCC2)C1
  cytotoxicity at 70.5 h: 13.3%

## CC(C)COC(=O)N1CCC2(CCNC2)C1 (centres undefined)
  cytotoxicity at 70.5 h: -10.5%

## CCOC(=O)N1CCCC2(CCCNC2)C1 (centres undefined)
  cytotoxicity at 70.5 h: -1.34%

## CCCC(=O)N1CCc2c(CNS(C)(=O)=O)cncc2C1
  cytotoxicity at 70.5 h: -8.58%

## CS(=O)(=O)NCc1cncc2c1CCN(C(=O)c1cccnc1)C2
  cytotoxicity at 70.5 h: -5.3%

## CO[C@H]1CCN(C2CCOCC2)C[C@@H]1Cc1ccccc1
  cytotoxicity at 70.5 h: -7.39%

## CO[C@@H]1CCN(C2CCOCC2)C[C@@H]1Cc1ccccc1
  cytotoxicity at 70.5 h: -11.8%

## CN(C)CCN1C(=O)C[C@@H]2[C@@H]1CCN2S(=O)(=O)c1ccccc1
  cytotoxicity at 70.5 h: -12.7%

## O=C1[C@@H]2CN(C3CCOCC3)C[C@H]2CCN1CC1CC1
  cytotoxicity at 70.5 h: -10.2%

## CN(C)C(=O)CN1CC[C@H]2CN(S(C)(=O)=O)C[C@@H]2C1=O
  cytotoxicity at 70.5 h: -3.84%

## CCN1CCC2(CN(C(=O)N(C)C)CC23CCNCC3)C1=O (centres undefined)
  cytotoxicity at 70.5 h: -8.8%

## O=C(C1CCC2(CCN(CC3CCOCC3)CC2)O1)N1CCCC1 (centres undefined)
  cytotoxicity at 70.5 h: 4.83%

## CN(C)C(=O)N1CC2(CCN(CC3CC3)CC2)c2cc(F)ccc21
  cytotoxicity at 70.5 h: 19.9%

## O=C1CC[C@]2(CC[C@@H](NCc3ccc4c(c3)OCO4)CC2)N1
  cytotoxicity at 70.5 h: 19.9%

## O=C(C1CC1)N1CC2(CCN(CC3CC3)CC2)c2cc(F)ccc21
  cytotoxicity at 70.5 h: 25.9%

## O=C1CC[C@]2(CC[C@@H](NCc3ccoc3)CC2)N1
  cytotoxicity at 70.5 h: -2.86%

## O=C(C1CC1)N1CC2(CCNCC2)c2cc(F)ccc21
  cytotoxicity at 70.5 h: -11.1%

## CCN(C)C1COC2(CCN(C(=O)c3cccc(Cl)c3)CC2)C1 (centres undefined)
  cytotoxicity at 70.5 h: -6.18%

## O=C(C[C@H]1[C@H]2CN(Cc3ccsc3)C[C@@H]12)N1CCCC1
  cytotoxicity at 70.5 h: -1.9%

## Cc1cccc(CN2CCc3[nH]nc(C(=O)N(C)C)c3C2)n1
  cytotoxicity at 70.5 h: 33.4%

## O=C1CCC2(CCCN(C(=O)Cc3cccnc3)C2)N1 (centres undefined)
  cytotoxicity at 70.5 h: -6.68%

## Cc1ccc(CN2C(=O)CC[C@]23CC[C@@H](NC2CCOC2)CC3)cc1 (some centres undefined)
  cytotoxicity at 70.5 h: -1.41%

## COc1ccc(CN[C@H]2CC[C@@]3(CCC(=O)N3)CC2)cc1
  cytotoxicity at 70.5 h: -6.23%

## CNC(=O)C1CCC2(CCNCC2)C1 (centres undefined)
  cytotoxicity at 70.5 h: -3.71%

## CO[C@@H]1CC[C@H]2[C@H]1OCCN2Cc1ccc(F)c(F)c1
  cytotoxicity at 70.5 h: -9.19%

## O=C(N1CCCC1)N1Cc2nccn2CC(COc2cccnc2)C1 (centres undefined)
  cytotoxicity at 70.5 h: -9.49%

## CO[C@@H]1CC[C@H]2[C@H]1OCCN2Cc1ccc(F)cc1
  cytotoxicity at 70.5 h: -9.94%

## Cc1nc(CN2CCCC3(CCN(c4cnn(C)c4)C3=O)C2)cs1 (centres undefined)
  cytotoxicity at 70.5 h: -11.6%

## Cn1ccc(C(=O)N2C[C@@H]3OCCN(c4ncccn4)[C@@H]3C2)n1
  cytotoxicity at 70.5 h: -12.1%

## COc1ccc(CN2CC[C@@H]3[C@H]2CCC(=O)N3c2cnn(C)c2)cc1
  cytotoxicity at 70.5 h: 5.08%

## CCN1CCN(C)C2(CCN(Cc3ccc(C)o3)CC2)C1=O
  cytotoxicity at 70.5 h: -7.08%

## c1cc(CN2CCC3(CCOCC3COCC3CC3)CC2)ccn1 (centres undefined)
  cytotoxicity at 70.5 h: 0.537%

## Cc1ccc(CN2CCc3[nH]nc(C(=O)N(C)C)c3C2)s1
  cytotoxicity at 70.5 h: 3.17%
